In patent US10059655B2, “Lipids and lipid compositions for the delivery of active agents” (priority 2013, dated 2018):

Key:
[1] = Measurement of siRNA encapsulation (SYBR Gold fluorescence); format: physicochemical; conditions: FVII siRNA in LNP
Protocol: The lipid nanoparticles (LNPs) were formed by mixing equal volumes of lipids dissolved in alcohol with siRNA dissolved in a citrate buffer by an impinging jet process. The lipid solution contains a cationic lipid compound of the invention, a helper lipid (cholesterol), an optional neutral lipid (DSPC) and a stealth lipid (S010, S024, S027, or S031) at a concentration of 8-16 mg/mL with a target of 12 mg/mL in an alcohol. The siRNA to total lipid ratio is approximately 0.05 (wt/wt). Where a LNP formulation contains four lipid components, the molar ratios of the lipids ranges from 20 to 70 mole percent for the cationic lipid with a target of 40-60, the mole percent of helper lipid ranges from 20 to 70 with a target of 30 to 50, the mole percent of neutral lipid ranges from 0-30, the mole percent of PEG lipid has a range from 1 to 6 with a target of 2 to 5. The concentration of siRNA solution ranges from 0.7 to 1.0 mg/mL with a target of 0.8 to 0.9 mg/mL in a sodium citrate: sodium chloride buffer pH 4-6, with a target of 4.5-5.5. The LNPs are formed by mixing equal volumes of lipid solution in ethanol with siRNA dissolved in a citrate buffer by an impinging jet process through a mixing device with ID ranging from 0.25 to 2.0 mm at a flow rate from 10 to 640 mL/min. The mixed LNP solution is held at room temperature for 0-24 hrs prior to a dilution step. The solution is then concentrated and diafiltered with suitable buffer by ultrafiltration process using membranes with a MW cutoff from 30 to 500 KD. The final product is sterile filtered and stored at 4° C.
SYBR Gold flourescence reagent is used for the determination of siRNA encapsulation in the DLP's. DLP's with and without triton x-100 are used to determine the free siRNA and total siRNA amounts. DLP's samples with and without triton X-100 were excited at 485 nm and flourescence emission is measured at 530 nm. Encapsulation efficiency is calculated based on the following formula: Encapsulation efficiency: [(free siRNA concentration−total siRNA concentration)/(total siRNA concentration)]×100% Encapsulation Data

[2] = Measurement of mRNA encapsulation in lipid nanoparticles (Quant-iT Ribogreen); format: physicochemical; conditions: Leptin mRNA in LNP
Outline: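 LNPs were formed by T-junction mixing of ethanolic lipids (cationic lipid:DSPC:cholesterol:PEG lipid 40:10:38:2) with mRNA in citrate pH 5.8–6.0 at N:P 4:1, then dialysed against PBS overnight at 4 °C. RiboGreen fluorescence (ex 480/em 520 nm) was read on samples diluted 400–2,000-fold in TE with or without 0.75% Triton X-100 and quantified against standard curves. Encapsulation % = (Triton − buffer concentration)/Triton concentration.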

Compound	% encapsulation siRNA FVII [1] [%]	% encapsulation mRNA Leptin [2] [%]
CCCCC/C=C\C/C=C\CCCCCCCC(=O)OCC(COC(=O)CCCCCCC/C=C\C/C=C\CCCCC)COC(=O)C1CCN(CC2CC2)CC1 [Example 9, (9Z,9′Z,12Z,12′Z)-2-(((1-(cyclopropylmethyl)piperidine-4-carbonyl)oxy)methyl)propane-1,3-diyl bis(octadeca-9,12-dienoate)]	86.7	–
CCCCC/C=C\C/C=C\CCCCCCCC(=O)OCC(COC(=O)CCCCCCCC(CCCCC)CCCCC)COC(=O)OCCCN(CC)CC (centres unmarked) [Example 24, (9Z,12Z)-3-(((3-(diethylamino)propoxy)carbonyl)oxy)-2-(((9-pentyltetradecanoyl)oxy)methyl)propyl octadeca-9,12-dienoate]	89.1	86.6
CCCCC/C=C\C/C=C\CCCCCCCC(=O)OCC(COC(=O)OCCN(C)C)COC(=O)C(OCCCCCCC)OCCCCCCC (centres unmarked) [Example 26, (9Z,12Z)-3-(2,2-bis(heptyloxy)acetoxy)-2-((((2-(dimethylamino)ethoxy)carbonyl)oxy)methyl)propyl octadeca-9,12-dienoate]	80.0	96.9

Results, then the compound that gave them:

% encapsulation siRNA FVII [1] [%]	% encapsulation mRNA Leptin [2] [%]	Compound
86.1	–	CCCCC/C=C\C/C=C\CCCCCCCC(=O)OCC(COC(=O)CC(CCCCCCCC)CCCCCCCC)COC(=O)OCCCN(CC)CC (centres unmarked) [Example 22, (9Z,12Z)-3-(((3-(diethylamino)propoxy)carbonyl)oxy)-2-(((3-octylundecanoyl)oxy)methyl)propyl octadeca-9,12-dienoate]
88.7	95.3	CCCCC/C=C\C/C=C\CCCCCCCC(=O)OCC(COC(=O)CCCC(CCCCCCC)CCCCCCC)COC(=O)OCCCN(CC)CC (centres unmarked) [Example 25, (9Z,12Z)-3-(((3-(diethylamino)propoxy)carbonyl)oxy)-2-(((5-heptyldodecanoyl)oxy)methyl)propyl octadeca-9,12-dienoate]
